Here are results for nine molecules from US4229466A, “Sesquiterpene derivatives having anti-complementary activity” (Otsuka Pharmaceutical Co., Ltd., priority 1977, dated 1980).

For orientation: LD50 means the dose at which mortality reaches 50%. A low value points to a more toxic substance.

Series [1] can be described thus: Acute toxicity on intravenous administration to mice. Particulars: mouse, in vivo.
Series [2] relates to complement serum (guinea pig complement). The series can be described thus: Anti-complement activity: 50% inhibition of hemolysis of sensitized erythrocytes. Format: cell-based. The settings on record: 37° C., 60 minutes, guinea pig complement diluted 150 times; for IC50: Cavia porcellus, Erythrocyte, 1 h, OD413, read-out: Anti-Complement Activity Value (50% hemolysis inhibitory activity value). As for the experimental part: The anti-complement activity was measured and confirmed by the testing method described in Meneki Kagaku (Immuno-Chemistry), Yuichi Yamamura et al., Ed. pages 830-834, Asakura Shoten, Tokyo, Japan (1973). Specifically,a test tube was charged with 0.5 ml of an aqueous dispersion of each of the test compounds, 0.5 ml of sensitized erythrocytes (EA) containing 1×10^8 cells/ml, 1 ml of a 5-fold diluted solution of a Veronal buffer solution containing gelatin, Ca^++ and Mg^++ (GVB^++), and 0.5 ml of complement serum (guinea pig complement) diluted to 150 times with the GVB^++. The mixture was maintained hot at 37° C. for 60 minutes. Then, 5 ml of an ice-cold physiological saline solution was added thereto, and the mixture was centrifuged. […] The 50% hemolysis inhibitory activity value (γ/ml) measured by the above method is shown in Table 2 below for each test compound.

In series [3] the test system is Nephrotoxin-Type Nephritis. The series can be described thus: Therapeutic effect on nephrotoxin-type nephritis (proteinuria). The settings on record: for inhibition of the primary reaction of nephrotoxin-type nephritis: same test as Table 3; for amount of proteinurea, Average: average of 3 replications; for amount of proteinurea, Average / amount of proteinurea: 5 mg per rat i.p. once daily, 7 days; for amount of proteinurea: individual replication. Format: in vivo, male Wistar rats. The source says: Rat nephrotoxin ("NT" for brevity) was obtained as described below. Rat kidney cortex was homogenized with an equal quantity of physiological saline. The homogenized mixture was mixed with Freund's complete adjuvant (a product of Difco Company) in a volume ratio of 1:1. Two milliliters of the resulting mixture was intramuscularly injected into a rabbit (body weight 3,100 g) to immunize the rabbit. A month and a half later, blood was taken from the heart of the rabbit and serum was obtained. The resulting serum was inactivated at 56° C. for 30 minutes, then salted out with a 40% saturated aqueous solution of ammonium sulfate, and fractionated. The γ-globulin (IgG) fraction was collected to obtain NT.
The evaluation was carried out using male Wistar rats with a body weight of 150 to 160 g with three replications for each test compound. The test compound was intraperitoneally administered once every 24 hours for seven days. One hour after the administration of the test compound on the third day, the NT was applied. The NT was intravenously injected in an amount of 1 ml at a tail vein of each rat. Chlorophyllin (CP) was used as a comparison compound, and physiological saline solution was used as a control.
The proteinuria level (total amount excreted into the urine over a 24 hour period) was measured using turbidometry employing bovine serum albumin as a control by means of sulfosalicylic acid.

The next series relates to Heymann-type Nephritis. The series can be described thus: Therapeutic effects on Heymann-type nephritis (proteinuria). It is filed as in vivo, male Wistar rats. The settings on record: for activity of curing Heymann-type nephritis: test of Table 4, result in words; for amount of proteinurea, Average: average of 3 replications; for amount of proteinurea: individual replication. The method, then:
Male Wistar rats with a body weight of 180 to 200 g were used in the test. Rat kidney cortex was extracted, and homogenized with an equal quantity by volume of a physiological saline solution. The homogenate was centrifuged at 1500 G for 1 hour. The supernatant liquid was purified in accordance with the method of T. S. […] The resulting mixture was injected intraperitoneally into isologous rats in an amount of 0.5 ml per rat. […] (This period was about 6 to 8 weeks.) […] CP was used as a comparison compound, and physiological saline solution was used as a control. Three replications were conducted for each test compound.

The mark [4] stands for this setting: Before Administration, group of 5 mg per rat i.p.
The mark [5] stands for this setting: Day 1, 5 mg per rat i.p. once a day, 7 days.
Where [6] appears, read: Day 4, 5 mg per rat i.p. once a day, 7 days.
[7] abbreviates: Day 7, 5 mg per rat i.p. once a day, 7 days.
The mark [8] stands for this setting: Day 14, 5 mg per rat i.p. once a day, 7 days.
Setting [9] is: Day 21, 5 mg per rat i.p. once a day, 7 days.

Several values for one entry are separate records, joined by “and”; a condition that tells them apart may be missing. Identical values can stand only once.

In series [1], `CC1CCC2C(C)(C)C(O)C(O)CC2(C)C12Cc1c(O)cc(O)c(O)c1O2` (stereo not shown) [(2), 6,7-Dihydroxy-2,5,5,8a-tetramethyl-1,2,3,4,4a,5,6,7,8,8a-decahydronaphthalene-1-spiro-2'-(4',6',7'-trihydroxy-2',3'-dihydrobenzofuran)] gave an LD50 of 150 mg/kg. In addition, the IC50 in series [2] was determined as 80 µg/mL.

`CC1CCC2C(C)(C)C(O)C(O)CC2(C)C12Cc1c(O)cc(C=C(C#N)C#N)c(C=C(C#N)C#N)c1O2` (stereo not shown) [(3), 6,7-Dihydroxy-2,5,5,8a-tetramethyl-1,2,3,4,4a,5,6,7,8,8a-decahydronaphthalene-1-spiro-2'-[6',7'-di-(2,2-dicyanovinyl)-4'-hydroxy-2',3'-dihydrobenzofuran]] had an LD50 in series [1] of 200 mg/kg. The IC50 in series [2] came to 40 µg/mL.

With `CCOC(=O)C(C#N)=Cc1cc(O)c2c(c1C=C(C#N)C(=O)OCC)OC1(C2)C(C)CCC2C(C)(C)C(O)C(O)CC21C` (stereo not shown) [(4), 6,7-Dihydroxy-2,5,5,8a-tetramethyl-1,2,3,4,4a,5,6,7,8,8a-decahydronaphthalene-1-spiro-2'-[6',7'-di-(2-cyano-2-ethoxycarbonylvinyl)-4'-hydroxy-2',3'-dihydrobenzofuran]], the median lethal dose (LD50) in series [1] was found to be 200 mg/kg. Also, in series [2], the IC50 was determined as 80 µg/mL.

In the case of `CC1CCC2C(C)(C)C(O)C(O)CC2(C)C12Cc1c(O)cc(CO)c(C(=O)O)c1O2` (stereo not shown) [(8), 6,7-Dihydroxy-2,5,5,8a-tetramethyl-1,2,3,4,4a,5,6,7,8,8a-decahydronaphthalene-1-spiro-2'-(7'-carboxy-6'-hydroxymethyl-4'-hydroxy-2',3'-dihydrobenzofuran)], the “inhibition of the primary reaction of nephrotoxin-type nephritis” value (“inhibition” for short) in series [3] (result in words) is “found to inhibit the primary reaction”. For the same molecule, the IC50 in series [2] came to 125 µg/mL. Further, the “activity of curing Heymann-type nephritis” value in the series with Heymann-type Nephritis was “a substantial activity of curing Heymann-type nephritis”.

`CC1CCC2C(C)(C)C(O)C(O)CC2(C)C12Cc1c(O)cc(CO)c(CO)c1O2` (stereo not shown) [(11), 6,7-Dihydroxy-2,5,5,8a-tetramethyl-1,2,3,4,4a,5,6,7,8,8a-decahydronaphthalene-1-spiro-2'-(6',7'-dihydroxymethyl-4'-hydroxy-2',3'-dihydrobenzofuran)]: the “inhibition” value in series [3] (result in words) is on record as “found to inhibit the primary reaction”. Also, in series [2], the IC50 is 500 µg/mL. Besides, the “activity of curing Heymann-type nephritis” value in the series with Heymann-type Nephritis was “a substantial activity of curing Heymann-type nephritis”.

With `COc1cc(CO)c(CO)c2c1CC1(O2)C(C)CCC2C(C)(C)C(O)C(O)CC21C` (stereo not shown) [(12), 6,7-Dihydroxy-2,5,5,8a-tetramethyl-1,2,3,4,4a,5,6,7,8,8a-decahydronaphthalene-1-spiro-2'-(6',7'-dihydroxymethyl-4'-methoxy-2',3'-dihydrobenzofuran)], the “inhibition” value in series [3] (result in words) is on record as “found to inhibit the primary reaction”. The IC50 in series [2] was 250 µg/mL. Also, in the series with Heymann-type Nephritis, the “activity of curing Heymann-type nephritis” value is given as “a substantial activity of curing Heymann-type nephritis”.

Consider `CC(=O)OCc1cc(OC(C)=O)c2c(c1COC(C)=O)OC1(C2)C(C)CCC2C(C)(C)C(OC(C)=O)C(OC(C)=O)CC21C` (stereo not shown) [Compound No. (25), 6,7-Diacetyloxy-2,5,5,8a-tetramethyl-1,2,3,4,4a,5,6,7,8,8a-decahydronaphthalene-1-spiro-2'-(6',7'-diacetyloxymethyl-4'-acetyloxy-2',3'-dihydrobenzofuran)], for which the “inhibition” value in series [3] (result in words) is listed as “found to inhibit the primary reaction”. In series [2], the IC50 stood at 600 µg/mL. Further, the “activity of curing Heymann-type nephritis” value in the series on Heymann-type Nephritis was “a substantial activity of curing Heymann-type nephritis”.

In the case of `CC1CCC2C(C)(C)C3OC(C)(C)OC3CC2(C)C12Cc1c(O)cc3c(c1O2)C(=O)OC3` (stereo not shown) [Compound No. (62), 4-Hydroxy-8-oxo-2,3,6,8-tetrahydro-furo[3,4-g]benzofuran-2-spiro-1'-(6',7'-isopropylidenedioxy-2',5',5',8'a-tetramethyl-1',2',3',4',4'a,5',6',7',8',8'a-decahydronaphthalene)], the “inhibition” value in series [3] (result in words) is “found to inhibit the primary reaction”. Also, in series [2], the IC50 is 450 µg/mL. The “activity of curing Heymann-type nephritis” value in the series on Heymann-type Nephritis was “a substantial activity of curing Heymann-type nephritis”.

For Chlorophyllin [reference compound], the “amount of proteinurea, Average” value in series [3] (Day 1) is on record as 3.4 mg/day; in series [3] (Day 4), 2.1 mg/day; in series [3] (Day 7), 2.0 mg/day; in series [3] (Day 10), 8 mg/day; in the series on Heymann-type Nephritis (setting [4]), 123 mg/day; with Heymann-type Nephritis (setting [5]), 115 mg/day. For the same molecule, the “amount of proteinurea, Average” value worked out at 62 mg/day in the series on Heymann-type Nephritis (setting [6]), 28 mg/day in the series with Heymann-type Nephritis (setting [7]), 14 mg/day with Heymann-type Nephritis (setting [8]) and 10 mg/day with Heymann-type Nephritis (setting [9]). Moreover, the amount of proteinurea in series [3] (Day 1) was 2.4 mg/day and 4.4 mg/day and 3.2 mg/day; in series [3] (Day 4), 1.5 mg/day and 2.6 mg/day and 2.1 mg/day; in series [3] (Day 7) it was 0.9 mg/day and 1.7 mg/day and 3.5 mg/day; in series [3] (Day 10), 9 mg/day and 8 mg/day and 6 mg/day; in the series on Heymann-type Nephritis (setting [4]), 123 mg/day and 117 mg/day and 129 mg/day; in the series on Heymann-type Nephritis (setting [5]), 116 mg/day and 108 mg/day and 121 mg/day. Besides, the amount of proteinurea with Heymann-type Nephritis (setting [6]) is 72 mg/day and 63 mg/day and 52 mg/day; in the series on Heymann-type Nephritis (setting [7]), 32 mg/day and 29 mg/day and 22 mg/day; with Heymann-type Nephritis (setting [8]) it was 16 mg/day and 12 mg/day and 15 mg/day; in the series with Heymann-type Nephritis (setting [9]), 10 mg/day and 8 mg/day and 13 mg/day. In addition, in series [3] (from administration of NT to 10 days after, result in words), the “amount of proteinurea compared with healthy rat” value is “substantially the same as that of a healthy rat”. The “Anti-Complement Activity Value (50% hemolysis inhibitory activity value)” value in series [2] (OD413) came out at 40 µg/mL.
